Experimental data: the NIST ThermoML archive (doi:10.1016/j.jct.2008.07.005)
± gives the expanded uncertainty stated by the source.

Assays:
[1] = xn = mol fraction of the nth substance listed; conditions: 283.15 K; 98.93 kPa; Liquid; x2 = 0

mass density [1] [kg/m3]	mass density (283.15 K, 101.33 kPa, Liquid) [kg/m3]	mass density (288.15 K, 101.33 kPa, Liquid) [kg/m3]	mass density (293.15 K, 101.33 kPa, Liquid) [kg/m3]	mass density (298.15 K, 101.33 kPa, Liquid) [kg/m3]	mass density (303.15 K, 101.33 kPa, Liquid) [kg/m3]	mass density (308.15 K, 101.33 kPa, Liquid) [kg/m3]	Compound	other results
999.7 ± 1.3							O [water] + CC(O)CO	
							OCC(O)CO [glycerol]	mass density (283.15 K, 101.33 kPa, Metastable liquid): 1266.31 ± 2.2 kg/m3; mass density (288.15 K, 101.33 kPa, Metastable liquid): 1264.39 ± 2.1 kg/m3; mass density (293.15 K, 101.33 kPa, Metastable liquid): 1262.53 ± 2.1 kg/m3; mass density (298.15 K, 101.33 kPa, Metastable liquid): 1258.73 ± 2.1 kg/m3; mass density (303.15 K, 101.33 kPa, Metastable liquid): 1254.9 ± 2.2 kg/m3; mass density (308.15 K, 101.33 kPa, Metastable liquid): 1252.65 ± 2.2 kg/m3
999.69 ± 1.3							O [water] + CCCO	
999.7 ± 1.3							O [water] + OCC(O)CO	
	811.34 ± 1.2	807.51 ± 1.1	803.65 ± 1.1	799.67 ± 1.1	795.95 ± 1.2	791.57 ± 1.2	CCCO [propan-1-ol]	
	1043.32 ± 1.5	1040.45 ± 1.5	1036.15 ± 1.4	1032.71 ± 1.5	1029.62 ± 1.5	1025.13 ± 1.6	CC(O)CO (centres undefined) [1,2-propanediol]	
999.7 ± 1.3							O [water] + OCCCO	
							O [water]	mass density (283.15 K, 98.93 kPa, Liquid): 999.7 ± 1.3 kg/m3
	1056.92 ± 1.7	1055.67 ± 1.6	1053.64 ± 1.6	1050.37 ± 1.7	1047.58 ± 1.7	1044.25 ± 1.8	OCCCO [propan-1,3-diol]	
